Measured values from patent US20260207600A1, “METHODS OF TREATMENT WITH MYOSIN MODULATOR” (MYOKARDIA, INC., priority 2019, published 2026).

Assays:
[1] = system: participants with symptomatic oHCM; assay: EXPLORER-HCM Phase 3 double blind, randomized, placebo controlled study; type: in vivo, human
Description: A subset of participants consented to participate in a CMR substudy at selected sites. Randomization was stratified according to NYHA functional classification (II or III), current treatment with β-blocker (yes or no), planned type of ergometer used during the study (treadmill or exercise bicycle), and consent for the CMR substudy (yes or no).
The study included 3 periods carried out according to the following design:
1) Screening period (Day −35 to Day −1): Participants will undergo a variety of general, cardiopulmonary, laboratory, symptom, and PRO assessments over 1 to 2 days in order to assess eligibility. Key Screening tests include electrocardiogram (ECG); transthoracic echocardiography (TTE) conducted at rest, with Valsalva maneuver, and post-exercise; as well as cardiopulmonary exercise testing (CPET). The following screening assessments may be repeated, as long as within the 35-days screening window: blood tests, ECG, and/or TTE. Repeat assessments are allowed if central core labs require a repeat submission due to quality and in order to better assess inclusion/exclusion values. Participants who screen fail may be considered for rescreening based on the investigator's discretion, taking into consideration the reason(s) for screen fail. One attempt at rescreening will be allowed, and all procedures must be repeated.
2) Double-blind treatment period (Day 1 [randomization] to Week 30/end of treatment [EOT]): The double-blind treatment period will include a two-step dose titration scheme designed to achieve safe and effective dosing for each participant based on their own response parameters. […] Subsequently, assessments including ECG, PK (trough plasma concentrations), and TTE will be performed at each of 7 study visits, beginning at Week 4, and read by core laboratories. At Week 8 and Week 14, the dose may be increased, decreased, or remain unchanged based upon results of Week 6 and Week 12 assessments, respectively, and based primarily on measurements of provoked left ventricular outflow tract (LVOT) gradient and bounded by a target plasma concentration (PK) range and clinical tolerability (LVEF). At Week 8, the dose may be increased to a maximum daily dose of 10 mg (ie, increase from 5 mg QD to 10 mg QD), and at Week 14 to a maximum daily dose of 15 mg (ie, increase from 10 mg QD to 15 mg QD). Dose increases are designed to be step wise and are not allowed to skip doses (eg, from 5 mg to 15 mg).
At Week 30/EOT, participants will complete CPET and post-exercise TTE. For any participants permanently discontinuing treatment prior to Week 30, an early termination (ET) visit should be conducted as soon as possible, including CPET and post-exercise TTE. Participants with ET will also be encouraged to complete all remaining study visits and assessments, including the Week 30 visit.
3) Posttreatment follow-up period (Week 30/EOT to Week 38/end of study [EOS]): When double-blind treatment ends at Week 30, participants will be contacted by phone at Week 34 and return to the site at Week 38 for an EOS visit. At the EOS visit, specified assessments will be repeated. This posttreatment follow-up period applies only to participants who are receiving study drug after Week 22.
To maintain safety throughout the double-blind treatment period, a clinic visit will occur every 2 to 4 weeks, beginning at Week 4 for an initial evaluation of clinical tolerability and safety. Clinic visits will include but are not limited to clinical evaluation (symptoms, PRO evaluations, adverse event [AE]/serious adverse event [SAE] assessment), ECGs, PK sample, TTEs, and laboratory assessments. Results of TTE performed by study site sonographers at each scheduled visit following randomization should be kept blinded to the investigator and other study site personnel. […]

CYP3A4/5 = assay: In vitro contribution of CYP enzymes to mavacamten metabolism; type: in vitro ADME
CYP2C9 = CYP2C9 (Homo sapiens, UniProt P11712); assay: as above; type: in vitro ADME
Sequence of CYP2C9 (P11712 whole entry): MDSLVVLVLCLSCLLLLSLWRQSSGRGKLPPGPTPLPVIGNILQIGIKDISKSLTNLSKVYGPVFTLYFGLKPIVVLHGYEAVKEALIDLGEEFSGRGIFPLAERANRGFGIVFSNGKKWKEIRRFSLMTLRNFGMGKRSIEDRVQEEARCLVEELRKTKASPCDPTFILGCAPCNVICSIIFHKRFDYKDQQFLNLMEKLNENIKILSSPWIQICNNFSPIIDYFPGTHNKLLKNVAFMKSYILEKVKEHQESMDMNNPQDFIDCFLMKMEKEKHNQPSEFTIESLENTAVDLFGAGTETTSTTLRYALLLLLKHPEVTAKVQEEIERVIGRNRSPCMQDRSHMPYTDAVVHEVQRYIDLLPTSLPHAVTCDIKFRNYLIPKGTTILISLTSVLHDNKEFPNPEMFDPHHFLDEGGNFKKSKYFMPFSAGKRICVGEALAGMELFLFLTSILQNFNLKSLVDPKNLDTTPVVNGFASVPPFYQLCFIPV

[2] = system: subjects with obstructive HCM; conditions: human, in vivo; cited from earlier work
[3] = system: subjects with symptomatic non-obstructive hypertrophic cardiomyopathy (nHCM); assay: […]-HCM Phase 2 randomized, double-blind, placebo-controlled, concentration-guided study; type: in vivo, human; conditions: baseline and week 16
[4] = Mavacamten arm (n = 123), baseline to Week 30
[5] = Mavacamten arm, defined as NYHA Class I and all LVOT gradients <30 mmHg
[6] = change from baseline to Week 30, p <0.0001

In the case of CC(C)n1c(=O)cc(N[C@@H](C)c2ccccc2)[nH]c1=O [mavacamten, (S)-3-Isopropyl-6-((1-phenylethyl)amino)pyrimidine-2, 4(1H,3H)-dione], the “subjects with severe TEAEs” value ([1]; 7 subjects, placebo 10.2%) is reported as 5.7%, the “Response Type 1 (pVO2 ≥1.5 ml/kg/min and NYHA improved ≥1), n (%)” value ([1]; Mavacamten (n = 123)) is reported as 41 (33.3) n (%) and the “Response Type 2 (pVO2 ≥3.0 ml/kg/min and no worsening NYHA), n (%)” value ([1]; Mavacamten (n = 123)) is reported as 29 (23.6) n (%). The “pVO2 ≥3.0 and NYHA ≥1, n (%)” value ([1]; Mavacamten (n = 123)) was 25 (20.3) n (%), the “Met Composite Functional Response, either type, n (%)” value ([1]; Mavacamten (n = 123), Week 30) was 45 (36.6) n (%) and the “Absence of MR (mitral regurgitation), (%)” value ([1]; Mavacamten arm) was “(9.0) %”. For the same molecule, the “Absence of MR (mitral regurgitation), n/assessible” value ([1]; Mavacamten arm) was 10/111, the “Absence of SAM (systolic anterior motion of mitral valve), (%)” value ([1]; Mavacamten arm) was “(80.9) %” and the “Absence of SAM (systolic anterior motion of mitral valve), n/assessible” value ([1]; Mavacamten arm) was 76/94. The “participants with a temporary discontinuation associated with reduced ejection fraction” value ([1]; Mavacamten arm) was 3, the “HCMSQ-SoB score, change from baseline, mean (SD)” value [1, 4] was −2.82 (2.7) and the “KCCQ-CSS, change from baseline, mean (SD)” value [1, 4] was 13.6 (14.4). For the same molecule, the “KCCQ-OSS, change from baseline, mean (SD)” value [1, 4] was 14.87 (15.8), the “KCCQ-total symptom score, change from baseline, mean (SD)” value [1, 4] was 12.44 (15.0) and the “NYHA improved ≥1 Class, n (%)” value [1, 4] was 80 (65) n (%). The “Post-exercise LVOT peak gradient, change from baseline, mean (SD)” value [1, 4] was −47.2 (40.3) mmHg, the “pVO2, change from baseline, mean (SD)” value [1, 4] was 1.4 (3.1) mL/kg/min and the “Post-exercise LVOT peak gradient < 30 mmHg, (%)” value ([1]; Mavacamten arm, Week 30) was “(56.6) %”. The “Post-exercise LVOT peak gradient < 30 mmHg, n/assessible” value ([1]; Mavacamten arm, Week 30) was 64/113, the “Post-exercise LVOT peak gradient < 50 mmHg, (%)” value ([1]; Mavacamten arm, Week 30) was “(74.3) %” and the “Post-exercise LVOT peak gradient < 50 mmHg, n/assessible” value ([1]; Mavacamten arm, Week 30) was 75/101. The “Complete Response, (%)” value [1, 5] was “(27.4) %”, the “Complete Response, n/assessible” value [1, 5] was 32/117 and the “Met Composite Functional Response, either type” value ([1]; Mavacamten vs Placebo) was 19.4. The “Response Type 1” value ([1]; Mavacamten vs Placebo) was 19.3, the “Response Type 2” value ([1]; Mavacamten vs Placebo) was 12.6 and the “pVO2 ≥3.0 and NYHA ≥1” value ([1]; Mavacamten vs Placebo) was 12.5. The “Complete Response, Mava vs Placebo Difference (95% CI)” value ([1]; NYHA Class I and all LVOT gradients <30 mmHg, p <0.0001) was 26.6 (18.3, 34.8), the “NT-proBNP Mava vs Placebo Model Est RR” value ([1]; Week 30, 95% CI (0.169, 0.241), p <0.0001) was 0.202 and the “hs-cTnI Mava vs Placebo Model Est RR” value ([1]; Week 30, 95% CI (0.500, 0.693), p <0.0001) was 0.589. For the same molecule, the “Post-exercise LVOT peak gradient < 30 mmHg, Mava vs Placebo Difference (95% CI)” value ([1]; Week 30, p <0.0001) was 49.6 (39.3, 59.8), the “Post-exercise LVOT peak gradient < 50 mmHg, Mava vs Placebo Difference (95% CI)” value ([1]; Week 30, p <0.0001) was 53.5 (42.0. 65.0) and the “NYHA improved ≥1 Class, Mavacamten vs Placebo Difference (95% CI)” value ([1]; baseline to Week 30, p <0.0001) was 33.8 (22.1, 45.4) <0.0001. The “KCCQ-total symptom score, Mavacamten vs Placebo Difference (95% CI)” value ([1]; change from baseline to Week 30, p 0.0002) was 7.60 (3.68, 11.52) 0.0002, the “pVO2, Mavacamten vs Placebo Difference (95% CI)” value ([1]; change from baseline to Week 30, p 0.0006) was 1.35 (0.580, 2.116) 0.0006 mL/kg/min and the “HCMSQ-SoB score, Mavacamten vs Placebo Difference (95% CI)” value [1, 6] was −1.8 (−2.402, −1.196) <0.0001. For the same molecule, the “KCCQ-CSS, Mavacamten vs Placebo Difference (95% CI)” value [1, 6] was 9.1 (5.46, 12.66) <0.0001, the “KCCQ-OSS, Mavacamten vs Placebo Difference (95% CI)” value [1, 6] was 9.12 (5.46, 12.80) <0.0001 and the “Post-exercise LVOT peak gradient, Mavacamten vs Placebo Difference (95% CI)” value [1, 6] was −35.5 (−43.1, −27.9) <0.0001 mmHg. The Tolerability ([1]; doses ranging from 2.5 to 15 mg) was “well tolerated”, the “patients meeting the primary efficacy endpoint (composite functional response)” value ([1]; intent-to-treat, 45 of the 123 patients) was 36.6% and the “permanent treatment discontinuations due to adverse events” value ([1]; on mavacamten (atrial fibrillation, syncope)) was 2. For the same molecule, the “Absence of MR, Mava vs Placebo Difference (95% CI)” value ([1]; p 0.0006) was 9.0 (3.7, 14.3), the “Absence of SAM, Mava vs Placebo Difference (95% CI)” value ([1]; p <0.0001) was 46.9 (34.5, 59.2) and the temporary discontinuations ([1]; patients on mavacamten (all at a 5 mg dose)) was 8. The “patients achieving a complete response (NYHA 1 and all LVOT gradients below 30 mmHg)” value ([1]; placebo 1%) was 27%, the “patients with cardiac SAEs” value ([1]; placebo 4) was 4 and the “patients achieving a post-exercise LVOT peak gradient below 30 mmHg” value ([1]; placebo 7%) was 57%. The “number of SAEs” value ([1]; placebo 20) was 12, the “patients achieving NYHA class I status” value ([1]; placebo 21%) was 65% and the “subjects experiencing SAEs” value ([1]; through week 30, 10 subjects) was 8.1%. For the same molecule, the “percent contribution to the metabolism of mavacamten” value (CYP3A4/5) was 18%, the “percent contribution to the metabolism of mavacamten” value (CYP2C9) was 7.5% and the “Obstruction of the left ventricular outflow tract” value [2] was “reduced or eliminated the obstruction of the left ventricular outflow tract”. For the same molecule, the “hs-cTnI, post-hoc analysis of banked serum samples” value [3] was “confirmed the reduction in cTnI”.
